Earlier results in patent US12454515B2, “2-aminoindane compounds for mental disorders or enhancement” (Tactogen Inc, priority 2020, dated 2025).

Tested on: neuritogenesis
Details: literature value

## CNC(C)Cc1ccc2c(c1)OCO2 (centres unmarked) [MDMA]
Ly et al. Cell reports 23 (2018) Figure S3, read-out: EC50 for promoting neuritogenesis
  EC50: 7.41 nM
Relative to ketamine, Ly et al. 2018
  Emax for promoting neuritogenesis: approximately twice that of ketamine
